Measured values as given in article PMC3794980, “Identification of Conserved and HLA Promiscuous DENV3 T-Cell Epitopes” (PLoS Neglected Tropical Diseases, 2013).
Read-outs that look alike come from different tables or passages of the source.

Experiments:
Assay in all cases: biochemical
Assay type in all cases: binding
[1] = target: DRB1*0301 (Homo sapiens, UniProt P01903+P01911, A100K/A102G/A103R/A169T/F55Y/I96L/K41T/L162R/M171V/P40S/Q125H/Q178H/Q39Y/R42S/S66N/T106N/T262R/W38E/Y61H)
[2] = target: DRB1*0405 (Homo sapiens, UniProt P01903+P01911, A100R/A169T/D86S/F76Y/I96L/K127E/L162R/M171V/N62H/P40V/Q125Y/R42H/S133A/S149N/S66Y/V115G/V209L/W38E)
[3] = target: DRB1*0901 (Homo sapiens, UniProt P01903+P01911, A100R/A103E/D57H/D86V/F55Y/F60I/F76Y/I96F/K127E/L162R/M171V/P40D/Q125H/Q99R/R33Q/R42F/S133A/S66N/T210M/V115G/W38K/Y107V/Y59G/Y89S)
[4] = target: DRB1*1101 (Homo sapiens, UniProt P01903+P01911, A100R/A169T/A87E/I96F/K41T/L162R/M171V/P40S/Q125H/Q178H/Q39Y/Q99D/R42S/S66Y/T262R/V115G/W38E)
DRB1*1101, sequence (P01903 26-254, other chains not shown): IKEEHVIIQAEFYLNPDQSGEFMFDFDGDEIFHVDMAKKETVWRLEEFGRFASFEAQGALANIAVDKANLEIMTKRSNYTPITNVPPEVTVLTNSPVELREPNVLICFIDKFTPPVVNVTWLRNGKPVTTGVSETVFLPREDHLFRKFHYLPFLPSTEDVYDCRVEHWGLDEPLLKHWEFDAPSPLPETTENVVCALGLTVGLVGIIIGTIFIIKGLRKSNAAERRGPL

[5] = target: DRB4*0101 (Homo sapiens, UniProt P01903+P13762, G164S)
[6] = target: DRB1*0401 (Homo sapiens, UniProt P01903+P01911, A100K/A169T/F76Y/I96L/K127E/L162R/M171V/N62H/P40V/Q125Y/R42H/S133A/S149N/S66Y/V115G/V209L/W38E)
[7] = target: DRB1*0404 (Homo sapiens, UniProt P01903+P01911, A100R/A169T/F76Y/I96L/K127E/L162R/M171V/N62H/P40V/Q125Y/R42H/S133A/S149N/S66Y/V209L/W38E)
[8] = target: DRB1*1501 (Homo sapiens, UniProt P01903+P01911)
[9] = target: DRB1*0802 (Homo sapiens, UniProt P01903+P01911, A100R/A103L/A169T/F76Y/H45Y/I96F/K41T/L162R/M171V/P40S/Q125H/Q178H/Q39Y/Q99D/R218S/R42G/S66Y/V115G/W38E)
[10] = target: DRB3*0101 (Homo sapiens, UniProt P01903+P79483)
[11] = target: DRB1*1302 (Homo sapiens, UniProt P01903+P01911, A100E/A169T/K41T/L162R/M171V/P40S/Q125H/Q178H/Q39Y/Q99D/R42S/S66N/T262R/V115G/W38E/Y61H)
DRB1*1302, sequence (P01903 26-254 limits assumed, other chains not shown): as the sequence (P01903 26-254, other chains not shown) above

[12] = target: DRB5*0101 (Homo sapiens, UniProt P01903+Q30154)
[13] = target: DRB1*0101 (Homo sapiens, UniProt P01903+P01911, A100R/D57E/F55L/F60I/F76Y/I96L/L162R/M171V/P40L/Q125E/R42F/V115G/Y59C)
[14] = target: DRB1*0701 (Homo sapiens, UniProt P01903+P01911, A100R/A102G/A103Q/D57E/D86V/E43K/F76Y/K127E/L162R/M171V/P40G/Q125H/Q99D/R33Q/R42Y/R54Q/S133A/S66F/T210M/V115G/Y107V/Y59L/Y89S)
[15] = competitive inhibition of radiolabeled standard peptide, '-' distinct from ND, read-out: Binding Affinity (nM) DRB1*0901
[16] = competitive inhibition of radiolabeled standard peptide, '-' distinct from ND, read-out: Binding Affinity (nM) DRB1*1302

DRB1*0301, sequence (P01903 26-254, other chains not shown): as above

| SMILES | IC50 [1] | IC50 [2] | IC50 [3, 15] | IC50 [4] | IC50 [5] | IC50 [6] | IC50 [7] | IC50 [8] | IC50 [9] | IC50 [10] | IC50 [11, 16] | IC50 [12] | IC50 [13] | IC50 [3] | IC50 [14] | IC50 [11] |
| --- | --- | --- | --- | --- | --- | --- | --- | --- | --- | --- | --- | --- | --- | --- | --- | --- |
| CC[C@H](C)[C@H](NC(=O)[C@H](CCCCN)NC(=O)CNC(=O)[C@H](CCC(=O)O)NC(=O)[C@@H](NC(=O)[C@H](CS)NC(=O)[C@H](CC(C)C)NC(=O)[C@H](CCCCN)NC(=O)[C@H](CCCNC(=N)N)NC(=O)[C@H](CC(C)C)NC(=O)[C@@H](NC(=O)[C@H](C)NC(=O)[C@H](CC(C)C)NC(=O)[C@H](CCC(N)=O)NC(=O)[C@@H](N)[C@@H](C)O)[C@@H](C)O)[C@@H](C)CC)C(=O)O [Envelope 51-65] | 2510 nM | 6340 nM | 2340 nM | 40 nM | 154 nM | 2140 nM | 10100 nM | 982 nM | 130 nM | 8300 nM | 1080 nM | 1850 nM | – | – | – | – |
| CC(C)C[C@H](NC(=O)[C@H](CCC(=O)O)NC(=O)[C@H](CCCCN)NC(=O)[C@@H](N)CCCNC(=N)N)C(=O)N[C@@H](CC(C)C)C(=O)N[C@H](C(=O)N[C@H](C(=O)N[C@@H](Cc1ccccc1)C(=O)N[C@@H](CCCCN)C(=O)N[C@@H](CC(N)=O)C(=O)N[C@@H](C)C(=O)N[C@@H](Cc1c[nH]cn1)C(=O)N[C@@H](C)C(=O)N[C@@H](CCCCN)C(=O)N[C@@H](CCCCN)C(=O)O)[C@@H](C)O)C(C)C [Envelope 231-245] | 2320 nM | 31 nM | – | – | 57 nM | 3.5 nM | 1590 nM | 5.2 nM | 7.2 nM | 16500 nM | – | 25 nM | 5.1 nM | 48 nM | 3780 nM | 17200 nM |
| CSCC[C@H](NC(=O)CNC(=O)[C@H](CCCCN)NC(=O)[C@H](CC(C)C)NC(=O)[C@H](CCC(=O)O)NC(=O)[C@H](CC(C)C)NC(=O)[C@H](CCCCN)NC(=O)[C@H](CC(=O)O)NC(=O)[C@H](CCSC)NC(=O)[C@H](CCCCN)NC(=O)[C@H](CC(C)C)NC(=O)[C@H](CCCNC(=N)N)NC(=O)[C@H](CS)NC(=O)[C@H](CCCCN)NC(=O)[C@@H](N)CC(C)C)C(=O)O [Envelope 281-295] | 17 nM | 9740 nM | – | 3330 nM | – | 2910 nM | 13200 nM | 652 nM | 4460 nM | 31 nM | – | 2500 nM | – | 7010 nM | 2160 nM | 915 nM |
| CC[C@H](C)[C@H](NC(=O)[C@H](CC(=O)O)NC(=O)CNC(=O)[C@@H](NC(=O)[C@@H](NC(=O)[C@@H](NC(=O)[C@@H](NC(=O)[C@H](CC(C)C)NC(=O)[C@@H](N)CCCCN)[C@@H](C)O)C(C)C)C(C)C)C(C)C)C(=O)N[C@H](C(=O)NCC(=O)N[C@H](C(=O)N[C@@H](CC(C)C)C(=O)N[C@@H](CCC(=O)O)C(=O)N[C@@H](CCC(N)=O)C(=O)O)C(C)C)[C@@H](C)CC [NS1 85-99] | 533 nM | 1400 nM | 42 nM | 807 nM | 220 nM | 88 nM | 2660 nM | 21 nM | – | 1680 nM | 483 nM | 77 nM | – | – | 70 nM | – |
